According to patent US20100048575A1, “NOVEL TETRACYCLIC INHIBITORS OF CYSTEINE PROTEASES, THE PHARMACEUTICAL COMPOSITIONS THEREOF AND THEIR THERAPEUTIC APPLICATIONS” (priority 2006, published 2010):

Key:
[1] = tested on: PC-3 prostate cancer cells; assay: PC3 cell viability and proliferation assay (MTS); format: cell-based; conditions: Homo sapiens, 72 hours, mean of 3 independent experiments, read-out: PC3 GI50 D3
Experimental: PC-3 prostate cancer cells were obtained from ATCC, and maintained in F-12K medium containing 7% FBS and 1% penicillin/streptomycin. Cells were incubated at 37° C. in a humidified atmosphere containing 5% CO2.
Cell viability was assayed using the MTS technique in 96-well culture plates (CellTiter 96® Aqueous Non-Radioactive Cell Proliferation Assay, Promega) according to the manufacturer's instructions. MTS (3-(4,5-dimethyl-thiazol-2-yl)-5-(3-carboxymethoxyphenyl)-2-(4-sulfophenyl)-2H-tetrazolium) is a MTT-derived tetrazolium that is reduced in metabolically active cells into a soluble, cell-permeant formazan. The amount of formazan, detected by its absorbance at 492 nm is proportional to the number of living, metabolically active cells.
2×10^3 PC3 cells were seeded per well. 24 hours later, the medium was changed and the cells treated in triplicate with the following concentrations of each compound: 10 μM-3.33 μM-1.11 μM-370 nM-123 nM-41 nM-14 nM and 5 nM. The compounds were diluted in 100% DMSO, whose final concentration on cells was kept at 0.5%.
Cells were incubated with the compounds for 72 hours, and their viability then assayed by the addition of MTS for 2 hours. Absorbance at 492 nm was measured directly from the 96-well culture plates. GI50 (Growth Inhibition 50) concentrations for each compound were calculated using a sigmoidal variable slope fit (Prism 4.0, Graphpad Softwares). Values represent mean of 3 independent experiments.

[2] = biological target: Cathepsin B (Homo sapiens, UniProt P07858); assay: Cathepsin B activity assay (z-RR-AMC); format: biochemical; conditions: 36 μM z-RR-AMC, 3.6 nM enzyme, 30 min pre-incubation, 60 min at 37° C., sigmoidal fit; read-out: cathepB (inhibition of cysteine protease activity)
Experimental: Cathepsin B was diluted in Cathepsin B buffer (20 mM Tris HCl pH 6.8; 1 mM EDTA; 1 mM DTT). Compounds stocks (100 mM) were stored at −20° C. in DMSO. Compounds were tested at the following final concentrations: 100 μM; 33.3 μM; 11.1 μM; 3.7 μM; 1.23 μM; 412 nM; 137 nM; 45.7 nM; 15.2 nM; 5 nM. Reactions were performed as duplicates in Black LJL 96 well plates (HE microplates; Molecular Devices; 20 μl final reaction volume). The substrate concentration for cathepsin B specificity assay was 36 μM (z-RR-AMC; Calbiochem). The concentration of the enzyme (Cathepsin B) in specificity assays was 3.6 nM. The concentrations were determined in order to perform specificity assays under initial velocities at fixed substrate concentration. Compounds were pre-incubated with enzymes for 30 minutes at 25° C. Reactions were initiated by addition of substrate to the plates containing the enzymes (+/−compounds) diluted in assay buffer. Reactions were incubated for 60 minutes at 37° C. Reactions were stopped by adding acetic acid (100 mM final). Readings were performed on a Pherastar Fluorescent Reader (BMG). δ Emission 380 nm; δ Excitation=460 nm. Data (mean values +/−standard deviation) were analyzed as % of control (no compound) and plotted as percentage versus the Log of the compound concentration using GraphPad (Prism). Data were fitted to a sigmoidal model (variable slope).

[3] = biological target: T1, USP7 (Homo sapiens, UniProt Q93009); assay: USP7 activity assay (Ub-AMC); format: biochemical; conditions: 400 nM Ub-AMC, 152 pM enzyme, 30 min pre-incubation, 60 min at 37° C., sigmoidal fit; read-out: USP7 (inhibition of cysteine protease activity)
T1 construct: His tag (from vector pFastBac-HT) (N); made in house; host or cells: insect cells (Sf9 or High Five), baculovirus
T1 sequence (Q93009 whole entry): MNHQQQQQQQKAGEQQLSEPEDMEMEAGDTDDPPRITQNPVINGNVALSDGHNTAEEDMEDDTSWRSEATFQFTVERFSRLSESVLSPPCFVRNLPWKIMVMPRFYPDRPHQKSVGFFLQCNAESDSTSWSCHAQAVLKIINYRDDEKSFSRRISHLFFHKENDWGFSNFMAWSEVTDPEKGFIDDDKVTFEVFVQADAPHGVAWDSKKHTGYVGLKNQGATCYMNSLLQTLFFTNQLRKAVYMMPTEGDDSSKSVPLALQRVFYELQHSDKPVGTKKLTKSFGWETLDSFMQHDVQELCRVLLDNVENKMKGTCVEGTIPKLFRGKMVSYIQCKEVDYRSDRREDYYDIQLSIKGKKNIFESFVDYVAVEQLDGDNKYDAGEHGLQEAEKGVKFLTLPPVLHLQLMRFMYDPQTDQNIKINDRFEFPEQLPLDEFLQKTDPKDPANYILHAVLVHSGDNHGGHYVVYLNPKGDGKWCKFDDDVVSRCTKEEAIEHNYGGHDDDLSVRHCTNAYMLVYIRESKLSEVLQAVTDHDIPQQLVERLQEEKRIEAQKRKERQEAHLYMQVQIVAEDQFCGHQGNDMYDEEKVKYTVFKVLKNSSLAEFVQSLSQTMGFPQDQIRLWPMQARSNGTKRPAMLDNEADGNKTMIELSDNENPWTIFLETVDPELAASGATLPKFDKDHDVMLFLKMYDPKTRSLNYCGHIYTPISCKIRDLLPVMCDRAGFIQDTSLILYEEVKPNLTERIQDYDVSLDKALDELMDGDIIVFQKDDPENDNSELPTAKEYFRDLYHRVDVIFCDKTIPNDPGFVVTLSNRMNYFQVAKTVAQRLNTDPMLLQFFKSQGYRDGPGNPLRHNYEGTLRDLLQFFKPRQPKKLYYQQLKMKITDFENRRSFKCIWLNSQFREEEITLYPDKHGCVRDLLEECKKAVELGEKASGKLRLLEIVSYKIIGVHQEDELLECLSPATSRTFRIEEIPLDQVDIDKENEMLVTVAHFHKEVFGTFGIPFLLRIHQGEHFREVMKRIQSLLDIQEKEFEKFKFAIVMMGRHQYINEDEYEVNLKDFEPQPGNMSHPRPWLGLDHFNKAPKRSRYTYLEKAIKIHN
Source text: The cDNA encoding USP7 was obtained by PCR amplification from placenta mRNA. USP7 cDNA was subcloned by PCR into a baculovirus expression vector (pFastBac-HT; Invitrogen). A cDNA encoding a mutated USP7 was generated by mutagenic PCR. The corresponding protein encodes a cysteine to alanine substitution at residue 223. The sequences were ascertained by sequencing of the entire open reading frame. Bacmids encoding […] were generated following DH10bac transposition. The corresponding bacmids were transfected into insect cells (Sf9). Viruses were recovered from culture supernatant and amplified twice. Insect cells (Sf9 or High Five; Invitrogen) were infected for 72 hours. Total cell lysates were harvested and lyzed in lysis buffer-(Tris HCl 50 mM pH7.6; 0.75% NP40; 500 mM NaCl; 10% glycerol; 1 mM DTT; 10 mM imidazole; Protease Inhibitor Cocktail; AEBSF 20 μg.ml^−1; Aprotinin 10 μg.ml^−1). Proteins were affinity purified on metal affinity resins (Talon Metal affinity resin; BD Biosciences). Bound materials were extensively washed in wash buffer (50 mM Sodium Phosphate pH7.0; 300 mM NaCl; 10 mM imidazole; 0.5% Triton X-100; 10% glycerol) and eluted from the resin in 250 mM imidazole-containing wash buffer. Proteins were dialyzed in dialysis buffer (Tris HCl pH 7.6 20 mM; NaCl 200 mM; DTT 1 mM; EDTA 1 mM; 10% Glycerol). Proteins purifications were analyzed on 4-12% NuPAGE (Invitrogen).
USP7 was diluted in USP buffer (50 mM Tris HCl; 0.5 mM EDTA; 5 mM DTT; 0.01% Triton X-100; Bovine Serum Albumin 0.05 mg.ml^−1 pH7.6). Compounds stocks (100 mM) were stored at −20° C. in DMSO. Compounds were tested at the following final concentrations: 100 μM; 33.3 μM; 11.1 μM; 3.7 μM; 1.23 μM; 412 nM; 137 nM; 45.7 nM; 15.2 nM; 5 nM.
Reactions were performed as duplicates in Black LJL 96 well plates (HE microplates; Molecular Devices; 20 μl final reaction volume). The substrate concentration for USP7 was 400 nM Ub-AMC (Chem. Biol., 2003, 10, p. 837-846) (Boston Biochem). The concentrations of the enzyme (USP7) in specificity assays was 152 pM. The concentrations were determined in order to perform specificity assays under initial velocities at fixed substrate concentration. Compounds were pre-incubated with enzymes for 30 minutes at 25° C. Reactions were initiated by addition of substrate to the plates containing the enzymes (+/−compounds) diluted in assay buffer. Reactions were incubated for 60 minutes at 37° C. Reactions were stopped by adding acetic acid (100 mM final). Readings were performed on a Pherastar Fluorescent Reader (BMG). λ Emission 380 nm; λ Excitation=460 nm. Data (mean values +/−standard deviation) were analyzed as % of control (no compound) and plotted as percentage versus the Log of the compound concentration using GraphPad (Prism). Data were fitted to a sigmoidal model (variable slope).

With `CON=C1c2ccccc2-c2nn3c(C)nnc3nc21` (mixture of isomers) [5a, 3-Methyl-1,2,3a,4,10-pentaaza-cyclopenta[b]fluoren-9-one O-methyl-oxime] the GI50 [1] was 6150 nM, the IC50 [2] was 2600 nM and the IC50 [3] was 4000 nM.

Molecule `C=CCON=C1c2ccccc2-c2nn3c(C)nnc3nc21` (mixture of isomers) [5b, 3-Methyl-1,2,3a,4,10-pentaaza-cyclopenta[b]fluoren-9-one O-allyl-oxime] has a GI50 [1] of 6690 nM and an IC50 [3] of 3140 nM.

In the case of `C=CCON=C1c2ccccc2-c2nn3c(CCCC)nnc3nc21` (mixture of isomers) [5d, 3-Butyl-1,2,3a,4,10-pentaaza-cyclopenta[b]fluoren-9-one O-allyl-oxime], the GI50 [1] is reported as 2790 nM, the IC50 [2] is reported as 6700 nM and the IC50 [3] is reported as 5350 nM.

`CCCCCCCCCCON=C1c2ccccc2-c2nn3nnnc3nc21` (mixture of isomers) [8a, 1,2,3,3a, 4,10-Hexaaza-cyclopenta[b]fluoren-9-one O-decyl-oxime] was tested, and the GI50 [1] was 391 nM and the IC50 [2] was 15800 nM.

`COCCON=C1c2ccccc2-c2nn3nnnc3nc21` (mixture of isomers) [8b, 1,2,3,3a, 4,10-Hexaaza-cyclopenta[b]fluoren-9-one O-(2-methoxy-ethyl)-oxime] was tested, and the GI50 [1] was 457 nM, the IC50 [2] was 2100 nM and the IC50 [3] was 470 nM.

`c1ccc(OCCCON=C2c3ccccc3-c3nn4nnnc4nc32)cc1` (mixture of isomers) [8c, 1,2,3,3a,4,10-Hexaaza-cyclopenta[b]fluoren-9-one O-(3-phenoxy-propyl)-oxime] was tested, and the GI50 [1] was 502 nM, the IC50 [2] was 3800 nM and the IC50 [3] was 1780 nM.

With `CCc1nnc2nc3c(nn12)-c1ccccc1C3=NOC` (mixture of isomers) [10b, 3-Ethyl-1,2,3a,4,10-pentaaza-cyclopenta[b]fluoren-9-one O-methyl-oxime] the IC50 [3] was 4840 nM.

With `CCON=C1c2ccccc2-c2nn3c(CC)nnc3nc21` (mixture of isomers) [10d, 3-Ethyl-1,2,3a,4,10-pentaaza-cyclopenta[b]fluoren-9-one O-ethyl-oxime] the IC50 [3] was 3110 nM.

`C=CCON=C1c2ccccc2-c2nn3c(CC)nnc3nc21` (mixture of isomers) [10f, 3-Ethyl-1,2,3a,4,10-pentaaza-cyclopenta[b]fluoren-9-one O-allyl-oxime] gave a GI50 [1] of 8400 nM and an IC50 [3] of 3250 nM.

Molecule `CCc1nnc2nc3c(nn12)-c1ccccc1C3=NOCc1ccccc1` (mixture of isomers) [10h, 3-Ethyl-1,2,3a,4,10-pentaaza-cyclopenta[b]fluoren-9-one O-benzyl-oxime] has an IC50 [3] of 7280 nM.

`C=CCON=C1c2ccccc2-c2nn3nnnc3nc21` (mixture of isomers) [compound 6, 1,2,3,3a,4,10-hexaaza-cyclopenta[b]fluoren-9-one O-allyl-oxime] was tested, and the GI50 [1] was 180 nM, the IC50 [2] was 300 nM and the IC50 [3] was 305 nM.

Molecule `ON=C1c2ccccc2-c2nn3nnnc3nc21` (mixture of isomers) [compound 7, 1,2,3,3a,4,10-hexaaza-cyclopenta[b]fluoren-9-one oxime] has a GI50 [1] of 466 nM, an IC50 [2] of 890 nM and an IC50 [3] of 657 nM.
